Results: patent US8153560B2, “Pesticidal active mixtures comprising aminothiazoline compounds” (BASF SE, priority 2007, dated 2012)

How the values were obtained:
[1] = tested on: green peach aphid (Myzus persicae); assay: Test B.2: control of green peach aphid through systemic means, artificial diet under membrane; type: in vivo
Description: For evaluating control of green peach aphid (Myzus persicae) through systemic means the test unit consisted of 96-well-microtiter plates containing liquid artificial diet under an artificial membrane.
The compounds or mixtures were formulated using a solution containing 75 wt % water and 25 wt % DMSO. Different concentrations of formulated compounds or mixtures were pipetted into the aphid diet, using a custom built pipetter, at two replications.
(§1) For experimental mixtures in these tests identical volumes of both mixing partners at the desired concentrations respectively, were mixed together.
After application, 5-8 adult aphids were placed on the artificial membrane inside the microtiter plate wells. The aphids were then allowed to suck on the treated aphid diet and incubated at 23±1° C., 50±5% RH for 3 days. Aphid mortality and fecundity was then visually assessed.

[2] = tested on: vetch aphid (Megoura viciae); assay: Test B.1: control of vetch aphid on broad bean leaf disks, contact or systemic; type: in vivo
Method: For evaluating control of vetch aphid (Megoura viciae) through contact or systemic means the test unit consisted of 24-well-microtiter plates containing broad bean leaf disks.
The compounds or mixtures were formulated using a solution containing 75 wt % water and 25 wt % DMSO. Different concentrations of formulated compounds or mixtures were sprayed onto the leaf disks at 2.5 μl, using a custom built micro atomizer, at two replications.
as §1
After application, the leaf disks were air-dried and 5-8 adult aphids placed on the leaf disks inside the microtiter plate wells. The aphids were then allowed to suck on the treated leaf disks and incubated at 23±1° C., 50±5% RH (relative humidity) for 5 days. Aphid mortality and fecundity was then visually assessed.

[3] = mixing partner alone, ppm 0.4 + 0, 3 days
[4] = mixing partner alone, ppm 40 + 0, 3 days
[5] = mixing partner alone, ppm 0.08 + 0, 5 days
[6] = mixing partner alone, ppm 0.08 + 0, 3 days

CC1(C)C(C=C(Cl)Cl)C1C(=O)OC(C#N)c1cccc(Oc2ccccc2)c1 (stereo not drawn) [Alphacypermethrin, alpha-cypermethrin]
Average Control % ([1]; mixing partner alone, ppm 10 + 0, 3 days): 50%

Cc1cc(C)cc(CC(NC2=NCCS2)c2cccc(C)c2C)c1 (stereo not drawn) [C.33, (4,5-Dihydro-thiazol-2-yl)-[2-(3,5-dimethyl-phenyl)-1-(2,3-dimethyl-phenyl)-ethyl]-amine]
Average Control % ([2]; compound C.33 alone, ppm 0 + 0.8, 5 days): 0% | Average Control % ([1]; compound C.33 alone, ppm 0 + 0.8, 3 days): 0% | Average Control % ([1]; compound C.33 alone, ppm 0 + 4, 3 days): 0% | Average Control % ([1]; compound C.33 alone, ppm 0 + 20, 3 days): 0% | Average Control % ([1]; compound C.33 alone, ppm 0 + 20, 3 days, listed as test compound): 50%

CNC(=O)c1cc(Cl)cc(C)c1NC(=O)c1cc(Br)nn1-c1ncccc1Cl [Chlorantraniliprole, chlorantraniliprole]
Average Control % [1, 3]: 50%

N#Cc1nn(-c2c(Cl)cc(C(F)(F)F)cc2Cl)c(N)c1[S+]([O-])C(F)(F)F (stereo not drawn) [Fipronil, fipronil]
Average Control % ([2]; mixing partner alone, ppm 2 + 0, 5 days): 25% | Average Control % [1, 3]: 0%

CC1=NNC(=O)N(/N=C/c2cccnc2)C1 [Pymetrozine, pymetrozine]
Average Control % [1, 4]: 50%

CC(C)(C)c1ccc(CSc2cnn(C(C)(C)C)c(=O)c2Cl)cc1 [Pyridaben, pyridaben]
Average Control % [1, 4]: 0%

CN1COCN(Cc2cnc(Cl)s2)/C1=N\[N+](=O)[O-] [Thiamethoxam, thiamethoxam]
Average Control % [2, 5]: 0% | Average Control % [1, 6]: 0%

abamectin
Average Control % [2, 5]: 0% | Average Control % [1, 6]: 0%
